Test results taken from patent US20230167088A1, “1-PYRAZINYLPYRAZOLYL-3-OXYALKYL ACIDS AND THEIR DERIVATIVES, AND THEIR USE FOR CONTROL OF UNDESIRED PLANT GROWTH” (BAYER AKTIENGESELLSCHAFT, priority 2020, published 2023).

What was measured:
AMARE [1] = assay: Herbicidal post-emergence action 1a (greenhouse pots, visual rating); assay type: in vivo, Amaranthus retroflexus; conditions: dosage 80 g/ha, visual rating about 3 weeks after treatment
How it was run: (§1)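 Visual scoring versus untreated plants (100% = plants dead, 0% = as control) followed roughly 3 weeks in the greenhouse after treatment. Plants grown in sandy loam pots had been sprayed on green parts at the one-leaf stage, 2–3 weeks post-sowing, with aqueous WP/EC preparations containing 0.5% additive, 600 l/ha, at 320 and/or 80 g/ha.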

ALOMY [2] = assay: as above; assay type: in vivo, Alopecurus myosuroides; conditions: Dosage 80 g/ha; rated visually about 3 weeks after treatment; 100% = plants have died, 0% = like control plants
How it was run: as §1

POLCO [3] = assay: Herbicidal pre-emergence action 2a (greenhouse pots, visual scoring); assay type: in vivo, Polygonum convolvulus; conditions: dosage 320 g/ha, visual scoring after about 3 weeks vs untreated controls
How it was run: (§2)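 Weed and crop seeds placed in pots and covered with soil; aqueous suspension or emulsion of WP/EC formulation applied to the soil surface before emergence (600 l/ha, 0.5% additive, 320 and/or 80 g/ha). Pots kept in the greenhouse about 3 weeks; visual percentage scoring.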

PHBPU = assay: Herbicidal post-emergence action 1a (greenhouse pots, visual rating); assay type: in vivo, Pharbitis purpurea; conditions: dosage 80 g/ha, visual rating about 3 weeks after treatment
How it was run: as §1

AVEFA [4] = assay: as above; assay type: in vivo, Avena fatua; conditions: Dosage 80 g/ha; rated visually about 3 weeks after treatment; 100% = plants have died, 0% = like control plants
How it was run: as §1

DIGSA [5] = assay: as above; assay type: in vivo, Digitaria sanguinalis; conditions: rated visually about 3 weeks after treatment, 100% = plants have died, 0% = like control plants
Procedure: (§3) [table] a) Seeds of monocotyledonous and dicotyledonous weeds and crop plants are placed in sandy loam in plastic or organic plant pots, covered with soil and cultivated in a greenhouse under controlled growth conditions. 2 to 3 weeks after sowing, the test plants are treated at the one-leaf stage. The compounds of the invention, formulated in the form of wettable powders (WP) or as emulsion concentrates (EC), are then sprayed onto the green parts of the plants as aqueous suspension or emulsion with addition of 0.5% additive at a water application rate of 600 1/ha (converted). After the test plants have been kept in the greenhouse under optimum growth conditions for about 3 weeks, the activity of the preparations is rated visually in comparison to untreated controls. For example, 100% activity=the plants have died, 0% activity=like control plants. Tables A1 to A15 below show the effects of selected compounds of the general formula (I) according to Tables 1 and 2 on various harmful plants and an application rate corresponding to 320 g/ha and/or 80 g/ha, which were obtained by the experimental procedure mentioned above.

harmful plants = assay: Herbicidal pre-emergence action 2a, summary across species; assay type: in vivo; conditions: Tables B1 to B15 (320 g/ha and/or 80 g/ha)
Source text: a) Seeds of monocotyledonous and dicotyledonous weed plants and crop plants are placed in plastic or organic plant pots and covered with soil. The compounds of the invention, formulated in the form of wettable powders (WP) or as emulsion concentrates (EC), are then applied onto the surface of the covering soil as aqueous suspension or emulsion with addition of 0.5% additive at a water application rate of 600 1/ha (converted). After the treatment, the pots are placed in a greenhouse and kept under good growth conditions for the trial plants. After about 3 weeks, the effect of the preparations is scored visually in comparison with untreated controls as percentages. For example, 100% activity=the plants have died, 0% activity=like control plants.
Tables B1 to B15 below show the effects of selected compounds of the general formula (I) according to Tables 1 and 2 on various harmful plants and an application rate corresponding to 320 g/ha and/or 80 g/ha, which were obtained by the experimental procedure mentioned above.
For example, compound nos. I-07, I-08, I-11, I-12, I-13, I-16, I-17, I-20, I-36, I-37, I-39, I-45, I-46, I-48, I-52 and I-53 in the pre-emergence method have very good action (80% to 100% herbicidal activity) against harmful plants such as Alopecurus myosuroides, Amaranthus retroflexus, Digitaria sanguinalis, Lolium rigidum, Polygonum convolvulus, Setaria viridis, Veronica persica and Viola tricolor at an application rate of 0.32 kg of active substance per hectare.

ECHCG [6] = assay: Herbicidal post-emergence action 1a (greenhouse pots, visual rating); assay type: in vivo, Echinochloa crus-galli; conditions: rated visually about 3 weeks after treatment, 100% = plants have died, 0% = like control plants
How it was run: as §1

VERPE [7] = assay: as above; assay type: in vivo, Veronica persica; conditions: dosage 80 g/ha, visual rating about 3 weeks after treatment
How it was run: as §1

VIOTR [8] = assay: as above; assay type: in vivo, Viola tricolor; conditions: dosage 80 g/ha, visual rating about 3 weeks after treatment
How it was run: as §1

STEME [9] = assay: Herbicidal pre-emergence action 2a (greenhouse pots, visual scoring); assay type: in vivo, Stellaria media; conditions: dosage 320 g/ha, visual scoring after about 3 weeks vs untreated controls
Source text: (§4) [table] a) Seeds of monocotyledonous and dicotyledonous weed plants and crop plants are placed in plastic or organic plant pots and covered with soil. The compounds of the invention, formulated in the form of wettable powders (WP) or as emulsion concentrates (EC), are then applied onto the surface of the covering soil as aqueous suspension or emulsion with addition of 0.5% additive at a water application rate of 600 1/ha (converted). After the treatment, the pots are placed in a greenhouse and kept under good growth conditions for the trial plants. After about 3 weeks, the effect of the preparations is scored visually in comparison with untreated controls as percentages. For example, 100% activity=the plants have died, 0% activity=like control plants. Tables B1 to B15 below show the effects of selected compounds of the general formula (I) according to Tables 1 and 2 on various harmful plants and an application rate corresponding to 320 g/ha and/or 80 g/ha, which were obtained by the experimental procedure mentioned above.

AMARE [10] = assay: as above; assay type: in vivo, Amaranthus retroflexus; conditions: dosage 320 g/ha, visual scoring after about 3 weeks vs untreated controls
How it was run: as §2

VERPE [11] = assay: as above; assay type: in vivo, Veronica persica; conditions: dosage 320 g/ha, visual scoring after about 3 weeks vs untreated controls
How it was run: as §2

POLCO [12] = assay: Herbicidal post-emergence action 1a (greenhouse pots, visual rating); assay type: in vivo, Polygonum convolvulus; conditions: dosage 80 g/ha, visual rating about 3 weeks after treatment
How it was run: as §1

AVEFA [13] = assay: Herbicidal pre-emergence action 2a (greenhouse pots, visual scoring); assay type: in vivo, Avena fatua; conditions: dosage 320 g/ha, visual scoring after about 3 weeks
How it was run: as §2

DIGSA [14] = assay: as above; assay type: in vivo, Digitaria sanguinalis; conditions: dosage 320 g/ha, visual scoring after about 3 weeks
How it was run: as §2

LOLRI = assay: Herbicidal post-emergence action 1a (greenhouse pots, visual rating); assay type: in vivo, Lolium rigidum; conditions: Dosage 80 g/ha; rated visually about 3 weeks after treatment; 100% = plants have died, 0% = like control plants
How it was run: as §1

MATIN = assay: as above; assay type: in vivo, Matricaria inodora; conditions: dosage 320 g/ha, visual rating about 3 weeks after treatment
How it was run: as §1

VIOTR [15] = assay: Herbicidal pre-emergence action 2a (greenhouse pots, visual scoring); assay type: in vivo, Viola tricolor; conditions: dosage 320 g/ha, visual scoring after about 3 weeks vs untreated controls
How it was run: as §2

ABUTH = assay: Herbicidal post-emergence action 1a (greenhouse pots, visual rating); assay type: in vivo, Abutilon theophrasti; conditions: dosage 320 g/ha, visual rating about 3 weeks after treatment
How it was run: as §1

ECHCG [16] = assay: Herbicidal pre-emergence action 2a (greenhouse pots, visual scoring); assay type: in vivo, Echinochloa crus-galli; conditions: dosage 320 g/ha, visual scoring after about 3 weeks
How it was run: as §2

SETVI = assay: as above; assay type: in vivo, Setaria viridis; conditions: dosage 320 g/ha, visual scoring after about 3 weeks vs untreated controls
How it was run: as §2

HORMU [17] = assay: Herbicidal post-emergence action 1a (greenhouse pots, visual rating); assay type: in vivo, Hordeum murinum; conditions: rated visually about 3 weeks after treatment, 100% = plants have died, 0% = like control plants
Procedure: as §3

HORMU [18] = assay: Herbicidal pre-emergence action 2a (greenhouse pots, visual scoring); assay type: in vivo, Hordeum murinum; conditions: dosage 320 g/ha, visual scoring after about 3 weeks vs untreated controls
Source text: as §4

ALOMY [19] = assay: as above; assay type: in vivo, Alopecurus myosuroides; conditions: dosage 320 g/ha, visual scoring after about 3 weeks
How it was run: as §2

STEME [20] = assay: Herbicidal post-emergence action 1a (greenhouse pots, visual rating); assay type: in vivo, Stellaria media; conditions: Dosage 80 g/ha; rated visually about 3 weeks after treatment; 100% = plants have died, 0% = like control plants
Procedure: as §3

C=CCOC(=O)C(C)Oc1nn(-c2cnccn2)c(-c2ccc(F)nc2)c1Br (racemic) [Example I-13]
Post-emergence action against AMARE in % (AMARE [1]): 80%
Post-emergence action against ALOMY in % (ALOMY [2]): 90%
Pre-emergence action against POLCO in % (POLCO [3]): 90%
Post-emergence action against PHBPU in % (PHBPU): 80%
Post-emergence action against AVEFA in % (AVEFA [4]): 100%
Post-emergence action against DIGSA in % (DIGSA [5]; Dosage 80 g/ha): 80%
Post-emergence action against DIGSA in % (DIGSA [5]; Dosage 320 g/ha): 90%
herbicidal efficacy against harmful plants in the case of pre-emergence treatment (in words) (harmful plants): good herbicidal efficacy
Post-emergence action against ECHCG in % (ECHCG [6]; Dosage 80 g/ha): 80%
Post-emergence action against ECHCG in % (ECHCG [6]; Dosage 320 g/ha): 90%
Post-emergence action against VERPE in % (VERPE [7]): 90%
Post-emergence action against VIOTR in % (VIOTR [8]): 90%
Pre-emergence action against STEME in % (STEME [9]): 90%
Pre-emergence action against AMARE in % (AMARE [10]): 100%
Pre-emergence action against VERPE in % (VERPE [11]): 100%
Post-emergence action against POLCO in % (POLCO [12]): 80%
Pre-emergence action against AVEFA in % (AVEFA [13]): 90%
Pre-emergence action against DIGSA in % (DIGSA [14]): 100%
Post-emergence action against LOLRI in % (LOLRI): 80%
Post-emergence action against MATIN in % (MATIN): 80%
Pre-emergence action against VIOTR in % (VIOTR [15]): 100%
Post-emergence action against ABUTH in % (ABUTH): 80%
Pre-emergence action against ECHCG in % (ECHCG [16]): 100%
Pre-emergence action against SETVI in % (SETVI): 100%
Post-emergence action against HORMU in % (HORMU [17]; Dosage 80 g/ha): 90%
Post-emergence action against HORMU in % (HORMU [17]; Dosage 320 g/ha): 90%
Pre-emergence action against HORMU in % (HORMU [18]): 100%
Pre-emergence action against ALOMY in % (ALOMY [19]): 100%
Post-emergence action against STEME in % (STEME [20]): 90%
